Results reported in patent publication US4963566A, “Benzimidazolyl-sulfinyl-tetrahydroquinolines” (Otsuka Pharmaceutical Co., Ltd., priority 1986, dated 1990).

These compounds were tested against T1, H^+ +K^+ ATPase (Sus scrofa, UniProt P19156) (assay: H+ +K+ ATPase inhibition (inorganic phosphoric acid release)). Settings: enzyme prepared from porcine stomach; 30 min with compound at room temperature, pH 6.1; then 30 min at 37° C., pH 7.4, 20 mM KCl.
T1 construct: prepared from porcine stomach; from tissue; host or cells: porcine stomach
T1 sequence (P19156 2-1034 limits assumed): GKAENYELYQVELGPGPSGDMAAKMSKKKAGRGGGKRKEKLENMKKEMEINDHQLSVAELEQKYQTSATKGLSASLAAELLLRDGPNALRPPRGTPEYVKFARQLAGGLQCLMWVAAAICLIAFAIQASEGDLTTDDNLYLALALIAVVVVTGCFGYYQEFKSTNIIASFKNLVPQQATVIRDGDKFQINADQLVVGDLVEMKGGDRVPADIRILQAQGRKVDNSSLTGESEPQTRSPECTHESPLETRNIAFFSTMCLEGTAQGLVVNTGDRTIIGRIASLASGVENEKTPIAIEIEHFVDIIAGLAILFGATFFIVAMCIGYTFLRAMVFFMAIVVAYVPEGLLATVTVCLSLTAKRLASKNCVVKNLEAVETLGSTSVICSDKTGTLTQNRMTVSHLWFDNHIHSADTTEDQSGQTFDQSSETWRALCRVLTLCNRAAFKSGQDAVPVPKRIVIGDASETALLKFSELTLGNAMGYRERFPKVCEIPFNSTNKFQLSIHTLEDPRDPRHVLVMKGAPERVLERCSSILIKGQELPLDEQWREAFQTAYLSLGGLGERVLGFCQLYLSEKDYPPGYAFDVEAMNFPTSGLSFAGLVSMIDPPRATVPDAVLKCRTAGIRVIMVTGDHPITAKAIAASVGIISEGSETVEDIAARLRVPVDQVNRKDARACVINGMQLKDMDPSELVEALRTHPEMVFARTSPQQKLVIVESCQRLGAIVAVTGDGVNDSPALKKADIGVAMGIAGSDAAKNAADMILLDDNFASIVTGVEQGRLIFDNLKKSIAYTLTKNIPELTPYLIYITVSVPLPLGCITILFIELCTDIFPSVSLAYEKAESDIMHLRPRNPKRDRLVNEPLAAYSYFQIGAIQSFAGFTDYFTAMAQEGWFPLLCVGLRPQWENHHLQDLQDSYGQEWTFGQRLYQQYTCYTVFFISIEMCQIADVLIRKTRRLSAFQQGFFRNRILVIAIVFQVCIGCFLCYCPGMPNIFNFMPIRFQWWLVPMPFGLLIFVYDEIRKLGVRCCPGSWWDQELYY
T1 sequence (P18434 whole entry partner): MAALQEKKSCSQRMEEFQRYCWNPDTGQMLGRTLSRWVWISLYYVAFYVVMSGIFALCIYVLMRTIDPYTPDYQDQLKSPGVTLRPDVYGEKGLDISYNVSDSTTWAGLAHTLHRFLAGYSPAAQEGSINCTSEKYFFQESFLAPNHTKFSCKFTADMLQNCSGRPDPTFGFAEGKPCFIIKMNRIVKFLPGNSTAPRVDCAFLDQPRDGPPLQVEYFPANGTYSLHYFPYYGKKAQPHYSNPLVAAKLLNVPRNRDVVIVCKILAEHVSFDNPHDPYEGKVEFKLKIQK
Type: biochemical
Method: H^+ +K^+ ATPase (adenosine triphosphatase) (amount of protein: 10 μg) prepared from porcine stomach was added to a Pipes-TRIS [i.e. 2-amino-2-(hydroxymethyl)-1,3-propanediol] buffer solution (pH 6.1) containing 2 mM of piperazine N,N'-bis(2-ethanesulfonic acid), and the mixture was let stand at room temperature. A test compound was dissolved in dimethyl formamide, and the mixture was added to said H^+ +K^+ ATPase buffer solution so that the final concentration should be 1% and let stand for reaction for 30 minutes at room temperature. Then a 75 mM Pipes-TRIS buffer (1 ml, pH 7.4) (containing 4 mM MgCl2, 4 mM Na2 ATP, and 20 mM KCl) and a 75 mM Pipes-TRIS buffer (1 ml, pH 7.4) (containing 4 mM MgCl2, and 4 mM Na2 ATP) were added to the solution individually to make two kinds of samples and these samples were presented for reaction for 30 minutes at 37° C. 40% Trichloroacetic acid (0.3 ml) was added to each sample to stop the reaction. The solution were subjected to centrifugal separation (3000 rpm) for 10 minutes, and the supernatant was taken off, then the formed inorganic phosphoric acid was measured by Fiske and Subbarow's method [J. Biol. Chem. vol. 66, 375 (1925)]. The value of deducting the amount of inorganic phosphoric acid taken from the Pipes-Tris buffer not containing 20 mM KCl from that taken from the Pipes-Tris buffer containing 20 mM KCl was calculated in terms of unit protein and unit hour to be defined as an activity index of enzyme. Inhibition level (%) in doses of administration was estimated by control values and activity indices of enzyme, and from the obtained inhibition level (%), IC50 (dose of administration of compounds to inhibit in 50%) was obtained.

SMILES	IC50 [nM]
CCN1CCCc2cc(C)cc(C[S+]([O-])c3nc4ccccc4[nH]3)c21 (centres unmarked) [Test compound No. 32, 1-ethyl-6-methyl-8-(2-benzimidazolyl)sulfinylmethyl-1,2,3,4-tetrahydroquinoline]	920
C=CCN1CCCc2cccc(C[S+]([O-])c3nc4ccc(C)cc4[nH]3)c21 (centres unmarked) [Test compound No. 33, 1-allyl-8-(5-methyl-2-benzimidazolyl)sulfinylmethyl-1,2,3,4-tetrahydroquinoline]	580
Cc1ccc2nc([S+]([O-])Cc3cccc4c3N(Cc3ccc(F)cc3)CCC4)[nH]c2c1 (centres unmarked) [Test compound No. 34, 1-(4-fluorobenzyl)-8-(5-methyl-2-benzimidazolyl)sulfinylmethyl-1,2,3,4-tetrahydroquinoline]	2100
[O-][S+](Cc1cccc2c1N(CC1CC1)CCC2)c1nc2ccccc2[nH]1 (centres unmarked) [Test compound No. 35, 1-cyclopropylmethyl-8-(2-benzimidazolyl)sulfinylmethyl-1,2,3,4-tetrahydroquinoline]	250
CCN1CCCc2cccc(C[S+]([O-])c3nc4ccccc4[nH]3)c21 (centres unmarked) [Test compound No. 36, 1-ethyl-8-(2-benzimidazolyl)sulfinylmethyl-1,2,3,4-tetrahydroquinoline]	450
CCN1CCC(C)c2cccc(C[S+]([O-])c3nc4cc(OC)c(F)cc4[nH]3)c21 (centres unmarked) [Test compound No. 37, 1-ethyl-8-(5-fluoro-6-methoxy-2-benzimidazolyl)sulfinylmethyl-4-methyl-1,2,3,4-tetrahydroquinoline]	890
C=CCN1CC(C)Cc2cccc(C[S+]([O-])c3nc4ccccc4[nH]3)c21 (centres unmarked) [Test compound No. 38, 1-allyl-8-(2-benzimidazolyl)sulfinylmethyl-3-methyl-1,2,3,4-tetrahydroquinoline]	830
CC1=CCN(C)c2c(C[S+]([O-])c3nc4ccc(C)cc4[nH]3)cccc21 (centres unmarked) [Test compound No. 39, 1,4-dimethyl-8-(5-methyl-2-benzimidazolyl)sulfinylmethyl-1,2-dihydroquinoline]	130
COc1ccc2nc([S+]([O-])Cc3cccc4c3N(C)CC=C4C)[nH]c2c1 (centres unmarked) [Test compound No. 40, 1,4-dimethyl-8-(5-methoxy-2-benzimidazolyl)sulfinylmethyl-1,2-dihydroquinoline]	520
CCN1CC=C(C)c2cccc(C[S+]([O-])c3nc4ccccc4[nH]3)c21 (centres unmarked) [Test compound No. 41, 1-ethyl-8-(2-benzimidazolyl)sulfinylmethyl-4-methyl-1,2-dihydroquinoline 1/2-hydrate]	230
CC1=C(C)c2cccc(C[S+]([O-])c3nc4ccccc4[nH]3)c2N(C)C1 (centres unmarked) [Test compound No. 42, 1,3,4-trimethyl-8-(2-benzimidazolyl)sulfinylmethyl-1,2-dihydroquinoline]	550
CN1CCC(=O)c2cccc(C[S+]([O-])c3nc4ccccc4[nH]3)c21 (centres unmarked) [Test compound No. 43, 1-methyl-8-(2-benzimidazolyl)sulfinylmethyl-4-oxo-1,2,3,4-tetrahydroquinoline]	6700
CN1CCC(C)(O)c2cccc(C[S+]([O-])c3nc4ccccc4[nH]3)c21 (centres unmarked) [Test compound No. 45, 1,4-dimethyl-8-(2-benzimidazolyl)sulfinylmethyl-4-hydroxy-1,2,3,4-tetrahydroquinoline]	2200
CCC1(O)CCN(C)c2c(C[S+]([O-])c3nc4ccccc4[nH]3)cccc21 (centres unmarked) [Test compound No. 46, 1-methyl-8-(2-benzimidazolyl)sulfinylmethyl-4-ethyl-4-hydroxy-1,2,3,4-tetrahydroquinoline]	1800
CCN1CCC(c2ccccc2)c2cccc(C[S+]([O-])c3nc4ccc(C)cc4[nH]3)c21 (centres unmarked) [Test compound No. 47, 1-ethyl-8-(5-methyl-2-benzimidazolyl)sulfinylmethyl-4-phenyl-1,2,3,4-tetrahydroquinoline]	1500
CCN1CCC(OC)c2cccc(C[S+]([O-])c3nc4ccccc4[nH]3)c21 (centres unmarked) [Test compound No. 48, 1-ethyl-8-(2-benzimidazolyl)sulfinylmethyl-4-methoxy-1,2,3,4-tetrahydroquinoline]	1100

SMILES	IC50 [nM]
CCN1CCC(=NO)c2cccc(C[S+]([O-])c3nc4ccccc4[nH]3)c21 (centres unmarked) [Test compound No. 50, 1-ethyl-8-(2-benzimidazolyl)sulfinylmethyl-4-hydroxyimino-1,2,3,4-tetrahydroquinoline]	4700
C=CCOC1CCN(CC)c2c(C[S+]([O-])c3nc4ccccc4[nH]3)cccc21 (centres unmarked) [Test compound No. 51, 1-ethyl-8-(2-benzimidazolyl)sulfinylmethyl-4-allyloxy-1,2,3,4-tetrahydroquinoline]	2900
C=C1CCN(CC)c2c(C[S+]([O-])c3nc4ccccc4[nH]3)cccc21 (centres unmarked) [Test compound No. 52, 1-ethyl-8-(2-benzimidazolyl)sulfinylmethyl-4-methylene-1,2,3,4-tetrahydroquinoline]	3900
CCN1CC(C(=O)OC)Cc2cccc(C[S+]([O-])c3nc4ccccc4[nH]3)c21 (centres unmarked) [Test compound No. 53, 1-ethyl-8-(2-benzimidazolyl)sulfinylmethyl-3-methoxycarbonyl-1,2,3,4-tetrahydroquinoline]	4900
CCN1CC(CO)Cc2cccc(C[S+]([O-])c3nc4ccccc4[nH]3)c21 (centres unmarked) [Test compound No. 54, 1-ethyl-8-(2-benzimidazolyl)sulfinylmethyl-3-hydroxymethyl-1,2,3,4-tetrahydroquinoline]	1200
CCN1CC(C(=O)N(C)C)Cc2cccc(C[S+]([O-])c3nc4ccccc4[nH]3)c21 (centres unmarked) [Test compound No. 55, 1-ethyl-8-(2-benzimidazolyl)sulfinylmethyl-3-dimethylcarbamoyl-1,2,3,4-tetrahydroquinoline 1/3-hydrate]	5100
CCN1CC(C(=O)O)Cc2cccc(C[S+]([O-])c3nc4ccccc4[nH]3)c21 (centres unmarked) [Test compound No. 56, 1-ethyl-8-(2-benzimidazolyl)sulfinylmethyl-3-carboxy-1,2,3,4-tetrahydroquinoline 1/2hydrate]	1900
CCN1CC(C(=O)N2CCCCC2)Cc2cccc(C[S+]([O-])c3nc4ccccc4[nH]3)c21 (centres unmarked) [Test compound No. 58, 1-ethyl-8-(2-benzimidazolyl)sulfinylmethyl-3-(1-piperizinyl)carbonyl-1,2,3,4-tetrahydroquinoline]	5900
CCN1CCC(N(C)C(C)=O)c2cccc(C[S+]([O-])c3nc4ccccc4[nH]3)c21 (centres unmarked) [Test compound No. 59, 1-ethyl-8-(2-benzimidazolyl)sulfinylmethyl-4-(N-methyl-N-acetyl)amino-1,2,3,4-tetrahydroquinoline]	5700
C=CCNC1CCN(CC)c2c(C[S+]([O-])c3nc4ccc(C)cc4[nH]3)cccc21 (centres unmarked) [Test compound No. 60, 1-ethyl-8-(5-methyl-2-benzimidazolyl)sulfinylmethylmethyl-4-allylamino-1,2,3,4-tetrahydroquinoline]	3300
C=CCN1CCC(OC)c2cccc(C[S+]([O-])c3nc4ccc(C)cc4[nH]3)c21 (centres unmarked) [Test compound No. 62, 1-allyl-8-(5-methyl-2-benzimidazolyl)sulfinylmethylmethyl-4-methoxy-1,2,3,4-tetrahydroquinoline]	4000
CCN1CCC(CO)c2cccc(C[S+]([O-])c3nc4cc(OC)c(F)cc4[nH]3)c21 (centres unmarked) [Test compound No. 63, 1-ethyl-8-(5-fluoro-6-methoxy-2-benzimidazolyl)sulfinylmethyl-4-hydroxymethyl-1,2,3,4-tetrahydroquinoline]	4500
CCN1CCC(N(C)C2CC2)c2cccc(C[S+]([O-])c3nc4cc(F)c(OC)cc4[nH]3)c21 (centres unmarked) [Test compound No. 64, 1-ethyl-8-(5-fluoro-6-methoxy-2-benzimidazolyl)sulfinylmethyl-4-(N-methyl-N-cyclopropyl)amino-1,2,3,4-tetrahydroquinoline]	4000
CCN1CCC(N(C=O)C2CC2)c2cccc(C[S+]([O-])c3nc4cc(F)c(OC)cc4[nH]3)c21 (centres unmarked) [Test compound No. 65, 1-ethyl-8-(5-fluoro-6-methoxy-2-benzimidazolyl)sulfinylmethyl-4-(N-formyl-N-cyclopropyl)amino-1,2,3,4-tetrahydroquinoline]	2800
CCN1CC(C)(C)C(OC)c2cccc(C[S+]([O-])c3nc4ccc(C)cc4[nH]3)c21 (centres unmarked) [Test compound No. 66, 1-ethyl-8-(5-methyl-2-benzimidazolyl)sulfinylmethyl-4-methoxy-3,3-dimethyl-1,2,3,4-tetrahydroquinoline]	330
CCOC(N(C)C1CCN(CC)c2c(C[S+]([O-])c3nc4cc(F)c(OC)cc4[nH]3)cccc21)C(F)(F)F (centres unmarked) [Test compound No. 69, 1-ethyl-8-(5-fluoro-6-methoxy-2-benzimidazolyl)sulfinylmethyl-4-[N-methyl-N-(2,2,2-trifluoro-1ethoxyethyl)]amino-1,2,3,4-tetrahydroquinoline]	4900
